Key:
Format in all cases: in vivo, human
[1] = system: osteoarthritis with capsulitis; assay: Clinical treatment of a patient, Example 1; conditions: for benefit of earlier therapeutic treatments: before Accutane, Asprin two to five 325 mg pills per day
Protocol: (§1) Example 1 to 3 illustrate clinical effectiveness of the above described treatment method. An initial treatment and a maintenance treatment as described above were prescribed to the patients. It is noted that the patients described in the Examples were in the average weight range, therefore, an average dosage of 40 mg was used. It is noted that all patients were told to totally avoid sun exposure during the initial treatment dosage period and for the first one or two weeks after instituting the maintenance dosage because of sun sensitivity with the use of Accutane®.
A patient in generally good health had the onset of joint complaints in 1988 affecting only the hands. The main location was in the distal interphalangeal joint (IP joint) which had been fractured in 1980. Symptoms were puffiness and swelling with increasing tenderness over the years. The tenderness had become so pronounced that in 1994 they stopped shaking hands because of the pain. In addition they had progressive difficulty making a fist because of swelling and tightness of the fingers.
X-ray examination found thining of joint space and capsular swelling of the interphalangeal joints. Laboratory examination results were normal. The patient was diagnosed with osteoarthritis with capsulitis.
In April 1997 the patient started taking Accutane® (13-cis retanoid acid, Hoffmann-La Roche Inc., Nutley, N.J.) for another medical condition in an initial dosage of about 40 mg Accutane® daily for twenty one days, followed by a maintenance dosage of about 40 mg Accutane® twice a week (on Monday and Friday).

[2] = system: inflammatory osteoarthritis and rheumatism; assay: Clinical treatment of a patient, Example 2; conditions: for effect of past treatment: person, before Accutane
Protocol: as §1
A person retired Navy Chief Warrant Officer was diagnosed with inflammatory osteoarthritis and rheumatism. The symptoms included joint pains for six to ten years. Initially in 1992 the join pains affected the right hip, and the patient suffered from the hip pain while working. In 1994, the patient developed neck and left shoulder pain. […] Furthermore, the shoulder was diagnosed as a rotator cuff injury. In 1997, the patient's hands became tender when playing golf. The hand condition progressed to puffiness of fingers and a gripping problem with difficulty closing hands. The patient's blood chemistry was normal.
The patient was placed on the 13-cis retanoic acid treatment on May 1, 2002 with an initial dosage about 40 mg Accutane® daily for fourteen days, followed by a maintenance dosage of about 40 mg Accutane® twice a week. […] As a result of such a significant improvement of the physical condition, the patient's golf handicap dropped from eleven (11) to nine (9).

osteoarthritis = assay: Clinical treatment of a patient, Example 3
Protocol: as §1
A farmer, had more than a ten year history of hand pain involving fingers, and associated with swelling and tenderness of interphalangeal joints. The hand condition made their work and playing golf difficult. The patient was diagnosed with osteoarthritis.
The patient was placed on 13-cis retanoic acid treatment in April of 2001, with an initial dosage of about 40 mg Accutane® daily for twenty one days, followed by a maintenance dosage of about 40 mg Accutane® twice a week. […] The improvements were maintained during a subsequent six month continuation of the maintenance dosage.

[3] = system: musculoskeletal and connective tissue inflammations; assay: Treatment of patients with initial and maintenance dosage, general findings; conditions: long term use of the low maintenance dosage
Protocol: Preferably, the treatment method further includes two treatment periods: an initial treatment, and a maintenance treatment. First, in the initial treatment, a patient administrates an initial dosage of 13-cis-retinoic acid for a period from about ten days to about five months. Thereafter, the patient administrates a lower maintenance dosage of 13-cis-retinoic acid.
The dosage is determined based on the patient's body weight. The initial dosage is in a range from about 10 mg to 80 mg 13-cis-retinoic acid daily (about 0.14 mg to about 1.1 mg per kilogram (kg) of body weight). For average men having a body weight about 160 lbs (72.6 kg), the average initial dosage is about 40 mg daily. The maintenance dosage is in a range from about 10 mg to 80 mg 13-cis-retinoic acid every three to seven days (about 0.14 mg to about 1.1 mg per kilogram (kg) of body weight). The average maintenance dosage for average men having a body weight about 160 lbs is about 40 mg every three to seven days. The dosages should be adjusted accordingly for children or those who weigh substantially less than or above the average body weight.
Furthermore, no serious adverse side effects were observed by using the described treatment. […]

[4] = about 40 mg daily 21 days, then 40 mg twice a week
[5] = 40 mg daily 14 days, then 40 mg twice a week

CC1=C(/C=C/C(C)=C/C=C/C(C)=C\C(=O)O)C(C)(C)CCC1 [Accutane, 13-cis-retinoic acid]
cervical spine tenderness [1, 4]: slow improvement | fibro calcified peri-spinous nodules of cervical spine [1, 4]: dissolution | range of motion (ROM), cervical spine [1, 4]: increased range of motion | stiff and painful shoulder condition (old rotator cuff injury, right shoulder) ([1]; about 40 mg daily 21 days, then 40 mg twice a week, over the ensuing months): improvement | blood-chemistries and hematology test results ([1]; continued maintenance dosage): remained normal | overall physical well being / musculoskeletal infirmities ([1]; continued maintenance dosage): no longer has any musculoskeletal infirmities | right shoulder pain during the initial treatment ([1]; initial treatment about 40 mg daily): increased right shoulder pain was noted, which then abated | physical side effects ([1]; long-term maintenance dosage 40 mg twice a week): No physical side effects have been noted other than dry lips and skin in the early stages | hand condition ([1]; person, about 40 mg daily for 21 days, then about 40 mg twice a week, over the ensuing months): gradual, but steady improvement | hand puffiness and grip problems [2, 5]: no longer exist | side effects [2, 5]: minimal side effects | shoulder pain ([2]; about 40 mg daily 14 days, then 40 mg twice a week, after total of seven weeks, physical therapy continued): completely abated | range of movement (shoulder) ([2]; after total of seven weeks of treatment): returned to normal | neck and hip pains ([2]; as of August, 2002 (start May 1, 2002)): almost completely abated | hand tenderness ([2]; if they play golf three to four days in a row): still exhibit a tinge of tenderness | range of movement (osteoarthritis; after ten weeks treatment): improvement | swelling and tenderness of the fingers (osteoarthritis; after ten weeks treatment): decreased | pre-therapy and follow-up blood tests (osteoarthritis; human, in vivo): normal | symptoms (osteoarthritis; person, about 40 mg daily 21 days, then 40 mg twice a week, after ten weeks treatment): began to improve | persistence of improvements (osteoarthritis; subsequent six month continuation of the maintenance dosage): maintained | side effects (osteoarthritis; subsided after taking the maintenance dosage): no side effects other than dry lips and skin | long term effect on musculoskeletal and connective tissue inflammations [3]: provides a long term control

CC(C)Cc1ccc(C(C)C(=O)O)cc1 (stereo not drawn) [Motrin, ibuprofen]
benefit of earlier therapeutic treatments [1]: minimal or no benefit | effect of past treatment [2]: minimal effect

COc1ccc2cc([C@H](C)C(=O)O)ccc2c1 [Naprosyn, naproxen]
benefit of earlier therapeutic treatments [1]: minimal or no benefit

CC(=O)Oc1ccccc1C(=O)O [Aspirin]
benefit of earlier therapeutic treatments [1]: minimal or no benefit | effect of past treatment [2]: minimal effect

— patent US7071228B2, “Method of treating musculoskeletal and connective tissue inflammations” (priority 2002, dated 2006)
